# Earlier results, collected in patent US4399125A, “Novel antagonists of the antidiuretic action of arginine vasopressin” (priority 1981, dated 1983).
# Legend:
# [1] = system: oxytocic response to oxytocin; conditions: literature; cited from earlier work
# [2] = system: antidiuretic activity (urine flow); conditions: prior art statement; cited from earlier work
# vasoconstrictive action = conditions: compared with natural vasopressins; cited from earlier work
# [3] = system: vasopressor response to AVP; conditions: prior art statement; cited from earlier work
# [4] = system: antidiuretic response to ADH (arginine vasopressin); conditions: earlier work of Manning et al. (in press); cited from earlier work
Substance,"oxytocic activity (agonist / antagonist, in words) [1]",antidiuretic potency / activity (in words) [2],vasopressor antagonism (in words) [3],also measured
"[1-(β-mercapto-β,β-cyclopentamethylenepropionic acid)] oxytocin [d(CH2)5 OT]",potent antagonists of the oxytocic response to oxytocin,,,
2-phenylalanine-8-ornithine vasopressin,,low antidiuretic activity,,vasoconstrictive action (vasoconstrictive action): equal to that of natural vasopressins
"[1-(β-Mercapto-β,β-cyclopentamethylenepropionic acid), 2-(O-methyl)tyrosine]-arginine vasopressin",,very low antidiuretic potency,potent vasopressor antagonists,
1-deamino-oxytocin [dOT],highly potent oxytocic agonist,,,
"[1-(β-Mercapto-β,β-cyclopentamethylenepropionic acid] arginine vasopressin",,very low antidiuretic potency,potent vasopressor antagonists,
[1-deaminopenicillamine] oxytocin [dPOT],potent antagonists of the oxytocic response to oxytocin,,,
"[1-deaminopenicillamine, 4-valine, 8-D-arginine]vasopressin",,weak antidiuretic activity,potent antagonists of the vasopressor response to AVP,
"[1-(β-mercapto-β,β-cyclopentamethylenepropionic acid), 2-D-tyrosine, 4-valine, 8-D-arginine] vasopressin [d(CH2)5 D-Tyr-VDAVP]",,,,anti-antidiuretic activity (in words) [4]: anti-antidiuretics
